Results reported in patent US20100249055A1, “CLOFARABINE PHOSPHOLIPID DERIVATIVES” (HEIDELBERG PHARMA AG, priority 2007, published 2010).

Experiments:
[1] = Oral bioavailability and pharmacokinetics in mice (plasma, mass spectroscopy); details: for Bioavailability F (AUC(0-inf.)): 30 mg/kg po vs iv; for AUC(0-inf.) (calc.) / AUC(0-t) (obs.) / Cmax (obs.) / Tmax (obs.) / Vd / t½α / t½β: WFI
Experimental: Mice received 30 mg/kg of 1 or 6 intravenously or orally. For each time point blood of 3 mice has been collected, plasma prepared and the concentration of 1 or 6 has been determined by mass spectroscopy. […] Bioavailability and the area under the curve (Auc(0-t) [μg h/L]=AUC) have been determined.

[2] = system: human cervix carcinoma xenograft KB-3-1; assay: Antitumor activity in human cervix carcinoma xenograft model (KB-3-1) in vivo; parameters: species or system nude mice; details: for Tumor inhibition / Tumor weight: day 30; for Tumor weight: median
Experimental: Tumor bearing mice were randomized on day 8 after KB-3-1 tumor cell inoculation and were distributed to treatment groups of n=7 animals per group. Treatment was started on day 8. The animals were treated orally once daily for 5 consecutive days with 1 or 6. Dosages included 50 and 25% of the Maximum Tolerable Doses (MTD's). Control animals received the vehicle (water). On day 30, the primary tumors were explanted and the tumor weights were determined.

[3] = 25% MTD, 100 mg/kg/day orally once daily for 5 days
[4] = 50% MTD, 200 mg/kg/day orally once daily for 5 days
[5] = 25% MTD, 100 mg/kg/day orally once daily for 5 days from day 8
[6] = 50% MTD, 200 mg/kg/day orally once daily for 5 days from day 8
[7] = mice, 30 mg/kg iv, experiment P06.0068
[8] = mice, 30 mg/kg po, experiment P06.0068
[9] = mice, 30 mg/kg po, experiment P06.0069
[10] = mice, 30 mg/kg iv, experiment P06.0069

## CCCCCCCCCCCCOCC(COP(=O)(O)OC[C@H]1O[C@@H](n2cnc3c(N)nc(Cl)nc32)C(F)[C@H]1O)OCCCCCCCCCC (stereo partly drawn) [Compound 1, [2-Chloro-9-(2′-deoxy-2′-fluoro-β-D-arabinofuranosyl)adenine]-5′-phosphoric acid-(2-decyloxy-3-dodecyloxy)propyl ester]
[1]; mice, experiment P06.0069
  Bioavailability F (AUC(0-inf.)): 28.5%
[1]; mouse, plasma, po, 30 mg/kg
  AUC: 88.9 µg·h/mL
[2]; 18 days after termination of treatment (day 30)
  Tumor size versus control animals: significantly (p<0.01) smaller tumors than control animals
[2]; [3]
  Tumor inhibition: 43%
[2]; [4]
  Tumor inhibition: 93%
[2]; [5]
  Tumor weight: 1.60 g
[2]; [6]
  Tumor weight: 0.19 g

## CCCCCCCCCCCCSCC(COP(=O)(O)OC[C@H]1O[C@@H](n2cnc3c(N)nc(Cl)nc32)[C@@H](F)[C@@H]1O)OCCCCCCCCCC (stereo partly shown) [Compound 6]
[1]; [7]
  AUC(0-inf.) (calc.): 841.7 µg·h/mL
  AUC(0-t) (obs.): 823.424 µg·h/mL
  Cmax (obs.): 673387 ng/mL
  Tmax (obs.): 0.0 h
  Vd: 0.26 L/kg
  t½α: 0.4 h
  t½β: 5.1 h
[1]; mice, 30 mg/kg orally, AUC(0-t)
  AUC after oral application: 213 µg·h/mL
[1]; mice, experiment P06.0068
  Bioavailability F (AUC(0-inf.)): 28.5%
[1]; [8]
  AUC(0-inf.) (calc.): 239.878 µg·h/mL
  AUC(0-t) (obs.): 236.496 µg·h/mL
  Cmax (obs.): 19517 ng/mL
  Tmax (obs.): 4.0 h
  Vd: 1.30 L/kg
  t½α: 0.5 h
  t½β: 7.2 h
[1]; [9]
  AUC(0-inf.) (calc.): 225.914 µg·h/mL
  AUC(0-t) (obs.): 212.685 µg·h/mL
  Cmax (obs.): 23571 ng/mL
  Tmax (obs.): 3.0 h
  Vd: 1.10 L/kg
  t½α: 0.9 h
  t½β: 5.7 h
[2]; [3]
  Tumor inhibition: 31%
[2]; [4]
  Tumor inhibition: 74%
[2]; [5]
  Tumor weight: 1.91 g
[2]; [6]
  Tumor weight: 0.73 g

## [2-Chloro-9-(2′-deoxy-2′-fluoro-β-D-arabinofuranosyl)adenine]-5′-phosphoric acid-(2-decyloxy-3-dodecyloxy)propyl ester [Compound 1]
[1]; [10]
  AUC(0-inf.) (calc.): 320.025 µg·h/mL
  AUC(0-t) (obs.): 315.695 µg·h/mL
  Cmax (obs.): 486156 ng/mL
  Tmax (obs.): 0.02 h
[1]; mice, experiment P06.0069
  Bioavailability F (AUC(0-inf.)): 28.5%
[1]; [9]
  AUC(0-inf.) (calc.): 91.31 µg·h/mL
  AUC(0-t) (obs.): 88.927 µg·h/mL
  Cmax (obs.): 13256 ng/mL
  Tmax (obs.): 2.0 h
